Results published in patent US20240408085A1, “COMPOUND FOR DEGRADATION OF BCL-2 FAMILY PROTEINS AND MEDICAL APPLICATION THEREOF” (XIZANG HAISCO PHARMACEUTICAL CO., LTD., priority 2021, published 2024).
Read-outs that look alike come from different tables or passages of the source.

System: MOLT-4 cells
Test: Cell proliferation activity in MOLT-4 cells (72 h, cell viability luminescence)
Assay type: cell-based, human
Settings: read-out: IC50 for the inhibition of MOLT-4 cell proliferation
Description: MOLT-4 cells are acute lymphoblastic leukemia cell lines in humans. The cells were purchased from ATCC. Culture conditions: RPMI-1640+10% FBS+1% penicillin-streptomycin solution. The cells were cultured in a 37° C., 5% CO2 incubator. The cells were plated in a 96-well plate, with 5×10^3 cells/well. After plating, compounds at different concentrations were added and cultured in a 37° C., 5% CO2 incubator for 72 h. After the completion of culture, a reagent (Promega, G7573) for detecting the cell viability was added. The mixture was uniformly mixed for 2 minutes and then incubated at room temperature for 10 minutes. The luminescence signal was detected with a multimode plate reader (BMG, PHERAstar FSX). The luminescence readings were processed using GraphPad Prism 8.0 software and the IC50 values of the compounds for the inhibition of cell proliferation and the maximum inhibition rate were calculated according to formula (2) and formula (3), respectively, wherein Tadministration denotes the cell signal readings obtained after incubation with the compounds for 72 h, and Tvehicle denotes the cell signal readings obtained after incubation with the vehicle control for 72 h.
Calculation of Max inhibition %: after the processing according to formula (2), the inhibition rate of the compounds at the highest concentration was calculated.

Structure (SMILES)	IC50 (Homo sapiens) [nM]	IC50 [nM]
Cc1ncsc1-c1ccc([C@H](C)NC(=O)[C@@H]2C[C@@H](O)CN2C(=O)[C@@H](NC(=O)CCCCCC(=O)N2C[C@]3(C)CN(CC[C@H](CSc4ccccc4)Nc4ccc(S(=O)(=O)NC(=O)c5ccc(N6CCN(CC7=C(c8ccc(Cl)cc8)CCC(C)(C)C7)CC6)cc5)cc4S(=O)(=O)C(F)(F)F)C[C@]3(C)C2)C(C)(C)C)cc1 [Compound 26, cis-(2S,4R)-1-((S)-2-(7-(5-((R)-3-((4-(N-(4-(4-((4′-chloro-4,4-dimethyl-3,4,5,6-tetrahydro-[1,1′-biphenyl]-2-yl)methyl)piperazin-1-yl)benzoyl)sulfamoyl)-2-((trifluoromethyl)sulfonyl)phenyl)amino)-4-(phenylthio)butyl)-3a,6a-dimethylhexahydropyrrolo[3,4-c]pyrrol-2(1H)-yl)-7-oxoheptanamido)-3,3-dimethylbutanoyl)-4-hydroxy-N—((S)-1-(4-(4-methylthiazol-5-yl)phenyl)ethyl)pyrrolidine-2-carboxamide]	< 500	
Cc1ncsc1-c1ccc([C@H](C)NC(=O)[C@@H]2C[C@@H](O)CN2C(=O)[C@@H](NC(=O)CCCCCC(=O)N2C[C@@H]3C[C@H]2CN3CC[C@H](CSc2ccccc2)Nc2ccc(S(=O)(=O)NC(=O)c3ccc(N4CCN(CC5=C(c6ccc(Cl)cc6)CCC6(CC6)C5)CC4)cc3)cc2S(=O)(=O)C(F)(F)F)C(C)(C)C)cc1 [Compound 27, (2S,4R)-1-((S)-2-(7-((1S,4S)-5-((R)-3-((4-(N-(4-(4-((6-(4-chlorophenyl)spiro[2.5]oct-5-en-5-yl)methyl)piperazin-1-yl)benzoyl)sulfamoyl)-2-((trifluoromethyl)sulfonyl)phenyl)amino)-4-(phenylthio)butyl)-2,5-diazabicyclo[2.2.1]heptan-2-yl)-7-oxoheptanamido)-3,3-dimethylbutanoyl)-4-hydroxy-N—((S)-1-(4-(4-methylthiazol-5-yl)phenyl)ethyl)pyrrolidine-2-carboxamide]	< 500	
Cc1ncsc1-c1ccc([C@H](C)NC(=O)[C@@H]2C[C@@H](O)CN2C(=O)[C@@H](NC(=O)CCCCCCC(=O)N2C[C@@H]3C[C@H]2CN3CC[C@H](CSc2ccccc2)Nc2ccc(S(=O)(=O)NC(=O)c3ccc(N4CCN(CC5=C(c6ccc(Cl)cc6)CCC6(CC6)C5)CC4)cc3)cc2S(=O)(=O)C(F)(F)F)C(C)(C)C)cc1 [Compound 28, (2S,4R)-1-((S)-2-(8-((1S,4S)-5-((R)-3-((4-(N-(4-(4-((6-(4-chlorophenyl)spiro[2.5]oct-5-en-5-yl)methyl)piperazin-1-yl)benzoyl)sulfamoyl)-2-((trifluoromethyl)sulfonyl)phenyl)amino)-4-(phenylthio)butyl)-2,5-diazabicyclo[2.2.1]heptan-2-yl)-8-oxooctanamido)-3,3-dimethylbutanoyl)-4-hydroxy-N—((S)-1-(4-(4-methylthiazol-5-yl)phenyl)ethyl)pyrrolidine-2-carboxamide]	< 500	
Cc1ncsc1-c1ccc([C@H](C)NC(=O)[C@@H]2C[C@@H](O)CN2C(=O)[C@@H](NC(=O)CCCCCC(=O)N2C[C@@H]3C[C@H]2CN3CC[C@H](CSc2ccccc2)Nc2ccc(S(=O)(=O)NC(=O)c3ccc(N4CCN(CC5=C(c6ccc(Cl)cc6F)CCC6(CC6)C5)CC4)cc3)cc2S(=O)(=O)C(F)(F)F)C(C)(C)C)cc1 [Compound 29, (2S,4R)-1-((S)-2-(7-((1S,4S)-5-((R)-3-((4-(N-(4-(4-((6-(4-chloro-2-fluorophenyl)spiro[2.5]oct-5-en-5-yl)methyl)piperazin-1-yl)benzoyl)sulfamoyl)-2-((trifluoromethyl)sulfonyl)phenyl)amino)-4-(phenylthio)butyl)-2,5-diazabicyclo[2.2.1]heptan-2-yl)-7-oxoheptanamido)-3,3-dimethylbutanoyl)-4-hydroxy-N—((S)-1-(4-(4-methylthiazol-5-yl)phenyl)ethyl)pyrrolidine-2-carboxamide]	< 500	
Cc1ncsc1-c1ccc([C@H](C)NC(=O)[C@@H]2C[C@@H](O)CN2C(=O)[C@@H](NC(=O)CCCCCCC(=O)N2C[C@@H]3C[C@H]2CN3CC[C@H](CSc2ccccc2)Nc2ccc(S(=O)(=O)NC(=O)c3ccc(N4CCN(CC5=C(c6ccc(Cl)cc6F)CCC6(CC6)C5)CC4)cc3)cc2S(=O)(=O)C(F)(F)F)C(C)(C)C)cc1 [Compound 30, (2S,4R)-1-((S)-2-(8-((1S,4S)-5-((R)-3-((4-(N-(4-(4-((6-(4-chloro-2-fluorophenyl)spiro[2.5]oct-5-en-5-yl)methyl)piperazin-1-yl)benzoyl)sulfamoyl)-2-((trifluoromethyl)sulfonyl)phenyl)amino)-4-(phenylthio)butyl)-2,5-diazabicyclo[2.2.1]heptan-2-yl)-8-oxooctanamido)-3,3-dimethylbutanoyl)-4-hydroxy-N—((S)-1-(4-(4-methylthiazol-5-yl)phenyl)ethyl)pyrrolidine-2-carboxamide]	< 500	
Cc1ncsc1-c1ccc([C@H](C)NC(=O)[C@@H]2C[C@@H](O)CN2C(=O)[C@@H](NC(=O)CCCCCC(=O)N2CCN(CC[C@H](CSc3ccccc3)Nc3ccc(S(=O)(=O)NC(=O)c4ccc(N5CCN(CC6=C(c7ccc(Cl)cc7F)CCC7(CC7)C6)CC5)cc4)cc3S(=O)(=O)C(F)(F)F)CC2)C(C)(C)C)cc1 [Compound 31, (2S,4R)-1-((S)-2-(7-(4-((R)-3-((4-(N-(4-(4-((6-(4-chloro-2-fluorophenyl)spiro[2.5]oct-5-en-5-yl)methyl)piperazin-1-yl)benzoyl)sulfamoyl)-2-((trifluoromethyl)sulfonyl)phenyl)amino)-4-(phenylthio)butyl)piperazin-1-yl)-7-oxoheptanamido)-3,3-dimethylbutanoyl)-4-hydroxy-N—((S)-1-(4-(4-methylthiazol-5-yl)phenyl)ethyl)pyrrolidine-2-carboxamide]	< 500	
Cc1ncsc1-c1ccc([C@H](C)NC(=O)[C@@H]2C[C@@H](O)CN2C(=O)[C@@H](NC(=O)CCCCCCC(=O)N2CCN(CC[C@H](CSc3ccccc3)Nc3ccc(S(=O)(=O)NC(=O)c4ccc(N5CCN(CC6=C(c7ccc(Cl)cc7F)CCC7(CC7)C6)CC5)cc4)cc3S(=O)(=O)C(F)(F)F)CC2)C(C)(C)C)cc1 [Compound 32, (2S,4R)-1-((S)-2-(8-(4-((R)-3-((4-(N-(4-(4-((6-(4-chloro-2-fluorophenyl)spiro[2.5]oct-5-en-5-yl)methyl)piperazin-1-yl)benzoyl)sulfamoyl)-2-((trifluoromethyl)sulfonyl)phenyl)amino)-4-(phenylthio)butyl)piperazin-1-yl)-8-oxoheptanamido)-3,3-dimethylbutanoyl)-4-hydroxy-N—((S)-1-(4-(4-methylthiazol-5-yl)phenyl)ethyl)pyrrolidine-2-carboxamide]		< 500

Now from value to compound, other results behind:

IC50 (Homo sapiens) [nM]	Structure (SMILES)	IC50 [nM]
< 500	Cc1ncsc1-c1ccc([C@H](C)NC(=O)[C@@H]2C[C@@H](O)CN2C(=O)[C@@H](NC(=O)CCCCCCC(=O)N2C[C@H]3CN(CC[C@H](CSc4ccccc4)Nc4ccc(S(=O)(=O)NC(=O)c5ccc(N6CCN(CC7=C(c8ccc(Cl)cc8F)CCC8(CC8)C7)CC6)cc5)cc4S(=O)(=O)C(F)(F)F)C[C@H]3C2)C(C)(C)C)cc1 [Compound 23, cis-(2S,4R)-1-((S)-2-(8-(5-((R)-3-((4-(N-(4-(4-((6-(4-chloro-2-fluorophenyl)spiro[2.5]oct-5-en-5-yl)methyl)piperazin-1-yl)benzoyl)sulfamoyl)-2-((trifluoromethyl)sulfonyl)phenyl)amino)-4-(phenylthio)butyl)hexahydropyrrolo[3,4-c]pyrrol-2(1H)-yl)-8-oxooctanamido)-3,3-dimethylbutanoyl)-4-hydroxy-N—((S)-1-(4-(4-methylthiazol-5-yl)phenyl)ethyl)pyrrolidine-2-carboxamide]	
< 500	Cc1ncsc1-c1ccc([C@H](C)NC(=O)[C@@H]2C[C@@H](O)CN2C(=O)[C@@H](NC(=O)CCCCCCC(=O)N2CCN(CC[C@H](CSc3ccccc3)Nc3ccc(S(=O)(=O)NC(=O)c4ccc(N5CCN(CC6=C(c7ccc(Cl)cc7F)CCC(C)(C)C6)CC5)cc4)cc3S(=O)(=O)C(F)(F)F)CC2)C(C)(C)C)cc1 [Compound 24, (2S,4R)-1-((S)-2-(8-(4-((R)-3-((4-(N-(4-(4-((4′-chloro-2′-fluoro-4,4-dimethyl-3,4,5,6-tetrahydro-[1,1′-biphenyl]-2-yl)methyl)piperazin-1-yl)benzoyl)sulfamoyl)-2-((trifluoromethyl)sulfonyl)phenyl)amino)-4-(phenylthio)butyl)piperazin-1-yl)-8-oxooctanamido)-3,3-dimethylbutanoyl)-4-hydroxy-N—((S)-1-(4-(4-methylthiazol-5-yl)phenyl)ethyl)pyrrolidine-2-carboxamide]	
< 500	Cc1ncsc1-c1ccc([C@H](C)NC(=O)[C@@H]2C[C@@H](O)CN2C(=O)[C@@H](NC(=O)CCCCCCC(=O)N2C[C@@H]3C[C@H]2CN3CC[C@H](CSc2ccccc2)Nc2ccc(S(=O)(=O)NC(=O)c3ccc(N4CCN(CC5=C(c6ccc(Cl)cc6)CCC(C)(C)C5)CC4)cc3)cc2S(=O)(=O)C(F)(F)F)C(C)(C)C)cc1 [Compound 25, (2S,4R)-1-((S)-2-(8-((1S,4S)-5-((R)-3-((4-(N-(4-(4-((4′-chloro-4,4-dimethyl-3,4,5,6-tetrahydro-[1,1′-biphenyl]-2-yl)methyl)piperazin-1-yl)benzoyl)sulfamoyl)-2-((trifluoromethyl)sulfonyl)phenyl)amino)-4-(phenylthio)butyl)-2,5-diazabicyclo[2.2.1]heptan-2-yl)-8-oxooctanamido)-3,3-dimethylbutanoyl)-4-hydroxy-N—((S)-1-(4-(4-methylthiazol-5-yl)phenyl)ethyl)pyrrolidine-2-carboxamide]	
